Test results: patent US10962541B2 (priority 2014, dated 2021)

How the values were obtained:
RhoA [1] = assay type: cell-based
Rap1 = assay type: cell-based, monkey
RhoA [2] = assay type: cell-based, monkey
[3] = tested on: polarized endothelial cells; test: Cell barrier function and viral infection in polarized endothelial cells; assay type: cell-based; conditions: unpublished results
Rac1 = molecular target: T1, Rac1 (Homo sapiens, UniProt P63000); test: G-trap assay validation, active Rac1 in HeLa cells; assay type: cell-based; conditions: calpeptin-mediated activation of RhoA
T1 construct: endogenous in cells; host or cells: HeLa (ATCC)

## COc1ccc(C2CC(c3ccccc3)=NN2c2ccc(S(N)(=O)=O)cc2)cc1 (stereo not shown) [CID2950007]
RhoA [1]
  RhoA activity: no effect on RhoA activity

## COC(=O)[C@H](CCSC)NC(=O)c1ccc(NC[C@@H](N)CS)cc1-c1ccccc1 [FTI277]
Rap1
  increase in active Rap1: ~2 fold

## CCN(CC)CCCC(C)Nc1nc(C)cc(Nc2ccc3nc(C)cc(N)c3c2)n1 (stereo not shown) [NSC23766]
RhoA [1]
  RhoA activity: elevated relative to resting cells
  activation of RhoA relative to resting cells: > 5 fold
RhoA [2]
  RhoA-GTP above EGF stimulation alone: 1.3 fold
  RhoA-GTP increase above basal levels: 2 fold

## C[C@@H](N)[C@H]1CC[C@H](C(=O)Nc2ccncc2)CC1 [Y27632]
[3]
  loss of cell barrier function: blocks the loss of cell barrier function
  viral infection: limits viral infection

## CCCC[C@@H](C=O)NC(=O)[C@H](CC(C)C)NC(=O)OCc1ccccc1 [calpeptin]
Rac1
  Rac1 activity: concomitant decrease in Rac1 activity
RhoA [2]
  increase in active RhoA: > 2 fold
